Test results reported in patent US20100035943A1, “Oxa-and thiadiazoles and their use as metalloproteinase inhibitors” (VERNALIS (OXFORD) LTD, priority 2002, published 2010).

Key:
Assay type in all cases: biochemical
metalloelastase (MMP12) = metalloelastase (MMP12) (Homo sapiens, UniProt P39900); assay: MMP12 enzyme inhibition assay (fluorogenic peptide substrate McaPLGLDpaAR); conditions: protocol as for MMP9 assay
Experimental: (§1) Stock solutions were made up as follows: • Assay Buffer: 100 mM Tris-HCl pH 7.6 containing 100 mM NaCl, 10 mM CaCl2, and 0.05% Brij 35 • Substrate: 0.4 mM McaPLGLDpaAR (from Bachem) (0.437 mg/ml) stock solution in 100% DMSO (stored at −20° C.). Dilute to 8 μM in assay buffer. • Enzyme: Recombinant human 92 kDa gelatinase (MMP-9; APMA (4-aminophenyl • mercuric acetate)—activated if necessary) appropriately diluted in assay buffer.
(§2) Test Compounds were prepared initially as 10 mM compound solution in 100% DMSO, diluted to 1 mM in 100% DMSO, then serially diluted 3-fold in 100% DMSO across columns 1-10 of a 96-well microtitre plate Assay concentration range, 100 μM (column 1) to 5.1 nM (column 10)
(§3) The assay was performed in a total volume of 100 μl per well in 96-well microtitre plates. Activated enzyme (20 μl) was added to the wells followed by 20 μl of assay buffer. Appropriate concentrations of test compounds dissolved in 10 μl of DMSO were then added followed by 50 μl of McaPLGLDpaAR (8 μM, prepared by dilution of DMSO stock in assay buffer). For each assay ten concentrations of test compound were examined in duplicate. Control wells lack either enzyme or test compound. The reactions were incubated at 37° C. for 2 hours. The fluorescence at 405 nm was measured immediately with an SLT Fluostar fluorometer (SLT Labinstruments GmbH, Grödig, Austria) using 320 nm excitation, without stopping the reaction.
(§4) The effect of the test compound was determined from the dose response curve generated by the 10 duplicate concentrations of inhibitor. The IC50 (the concentration of compound required to give a 50% decrease in enzyme activity) was obtained by fitting data to the equation, Y=a+((b−a)/(1+(c/X)^d)). (Y=inhibition achieved for a particular dose; X=the dose in nM; a=minimum y or zero % inhibition; b=maximum y or 100% inhibition; c=is the IC50; d=is the slope). The result was rounded to one significant figure.
(§5) Compounds were tested for inhibitory activity against metalloelastase (MMP12) in an assay using a coumarin-labelled peptide substrate, (7-methoxycoumarin-4-yl)acetyl-Pro-Leu-Gly-Leu-(3-[2,4-dinitrophenyl]-L-2,3-diaminopropionyl)-Ala-Arg-NH2 (McaPLGLDpaAR) (Knight et al, FEBS Lett. 1992; 263-266). The protocol for this assay was as described for the MMP9 assay above.

collagenase (MMP1) = target: T1, collagenase (MMP1) (Homo sapiens, UniProt P03956); assay: MMP1 enzyme inhibition assay (fluorogenic peptide substrate McaPLGLDpaAR); conditions: protocol as for MMP9 assay
T1 sequence (P03956 100-469): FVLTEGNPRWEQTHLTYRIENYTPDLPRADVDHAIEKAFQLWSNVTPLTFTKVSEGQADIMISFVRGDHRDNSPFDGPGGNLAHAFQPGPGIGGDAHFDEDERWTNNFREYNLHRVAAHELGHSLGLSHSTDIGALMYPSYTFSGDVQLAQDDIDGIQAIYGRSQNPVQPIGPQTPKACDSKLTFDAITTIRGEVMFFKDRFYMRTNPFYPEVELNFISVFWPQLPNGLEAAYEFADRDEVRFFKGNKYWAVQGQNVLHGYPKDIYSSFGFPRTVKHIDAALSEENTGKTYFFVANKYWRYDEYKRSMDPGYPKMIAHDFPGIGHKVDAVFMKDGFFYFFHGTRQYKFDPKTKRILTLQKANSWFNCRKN
Experimental: as §1, §2, §3, §4
as §5, with “• Compounds” for “Compounds”, “collagenase (MMP1)” for “metalloelastase (MMP12)”

92 kDa gelatinase (MMP9) = 92 kDa gelatinase (MMP9) (Homo sapiens, UniProt P14780); assay: MMP9 enzyme inhibition assay (fluorogenic peptide substrate McaPLGLDpaAR); conditions: recombinant human 92 kDa gelatinase, 37° C., 2 hours
92 kDa gelatinase (MMP9), sequence (P14780 107-707 limits assumed): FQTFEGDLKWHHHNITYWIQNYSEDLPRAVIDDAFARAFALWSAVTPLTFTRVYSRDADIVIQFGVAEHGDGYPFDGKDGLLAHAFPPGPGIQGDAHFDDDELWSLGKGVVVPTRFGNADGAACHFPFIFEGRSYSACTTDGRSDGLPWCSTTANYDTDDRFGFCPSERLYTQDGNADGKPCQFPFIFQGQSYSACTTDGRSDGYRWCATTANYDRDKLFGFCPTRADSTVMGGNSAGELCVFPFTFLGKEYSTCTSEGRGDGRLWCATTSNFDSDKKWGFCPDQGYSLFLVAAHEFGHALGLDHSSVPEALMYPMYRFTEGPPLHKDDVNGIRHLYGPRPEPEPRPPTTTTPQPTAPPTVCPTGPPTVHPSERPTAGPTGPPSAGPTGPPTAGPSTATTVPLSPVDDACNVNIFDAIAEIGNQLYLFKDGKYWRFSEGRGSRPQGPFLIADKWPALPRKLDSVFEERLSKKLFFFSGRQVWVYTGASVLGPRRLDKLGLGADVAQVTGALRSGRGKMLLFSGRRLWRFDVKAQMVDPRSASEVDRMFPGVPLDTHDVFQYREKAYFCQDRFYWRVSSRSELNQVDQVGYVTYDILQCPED
Experimental: Compounds were tested for inhibitory activity against 92 kDa gelatinase (MMP9) in an assay using a coumarin-labelled peptide substrate, (7-methoxycoumarin-4-yl)acetyl-Pro-Leu-Gly-Leu-(3-[2,4-dinitrophenyl]-L-2,3-diaminopropionyl)-Ala-Arg-NH2 (McaPLGLDpaAR) (Knight et al, FEBS Lett. 1992; 263-266).
as §1, §2, §3, §4

metalloelastase (MMP12), sequence (P39900 106-470): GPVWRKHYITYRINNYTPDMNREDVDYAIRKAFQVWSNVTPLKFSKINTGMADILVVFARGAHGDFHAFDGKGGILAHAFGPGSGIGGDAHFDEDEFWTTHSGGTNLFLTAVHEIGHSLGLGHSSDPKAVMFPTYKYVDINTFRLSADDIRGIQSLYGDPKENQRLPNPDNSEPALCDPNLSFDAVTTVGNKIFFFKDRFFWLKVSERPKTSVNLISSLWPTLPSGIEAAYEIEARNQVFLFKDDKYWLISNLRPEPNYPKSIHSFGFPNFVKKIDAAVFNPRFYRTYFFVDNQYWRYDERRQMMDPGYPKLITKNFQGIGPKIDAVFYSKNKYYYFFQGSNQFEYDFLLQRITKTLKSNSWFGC

## CC(C)C[C@@H](C(=O)N[C@H](c1noc(C2CCCC2)n1)C(C)(C)C)[C@H](O)C(=O)NO [Example 9, 2S-Hydroxy-3R-[1S-(5-cyclopentyl-[1,2,4]oxadiazol-3-yl)-2,2-dimethyl-propylcarbamoyl]-5-methyl Hexanohydroxamic Acid]
Metalloelastase (MMP12)
  IC50: < 100 nM
Collagenase (MMP1)
  IC50: 100 to 1000 nM
92 kDa gelatinase (MMP9)
  IC50: 1000 to 10000 nM

## CC(C)(C)[C@H](NC(=O)[C@H](CCCc1ccc(Cl)cc1)CC(=O)O)c1noc(-c2ccccc2)n1 [Example 28, 6-(4-Chloro-phenyl)-3R-[2,2-dimethyl-1S-(5-phenyl-[1,2,4]oxadiazol-3-yl)-propylcarbamoyl]-hexanoic Acid]
Metalloelastase (MMP12)
  IC50: > 10000 nM

## CC(C)C[C@H](CC(=O)NO)C(=O)N[C@H](c1nc(-c2ccccc2)no1)C(C)(C)C [Example 24, 3R-[2,2-Dimethyl-1S-(3-phenyl-[1,2,4]oxadiazol-5-yl)-propylcarbamoyl]-5-methyl-hexanohydroxamic Acid]
Metalloelastase (MMP12)
  IC50: < 100 nM
Collagenase (MMP1)
  IC50: 1000 to 10000 nM
92 kDa gelatinase (MMP9)
  IC50: 1000 to 10000 nM

## CO[C@H](C(=O)NO)[C@@H](CC(C)C)C(=O)N[C@@H](Cc1ccccc1)c1nc(C)no1 [Example 25, 2S-Methoxy-5-methyl-3R-[1S-(3-methyl-[1,2,4]oxadiazol-5-yl)-2-phenyl-ethylcarbamoyl]-hexanohydroxamic Acid]
Metalloelastase (MMP12)
  IC50: < 100 nM
Collagenase (MMP1)
  IC50: 100 to 1000 nM
92 kDa gelatinase (MMP9)
  IC50: 100 to 1000 nM

## CC(C)(C)[C@H](NC(=O)[C@H](CCCc1cc(C(F)(F)F)cc(C(F)(F)F)c1)[C@H](O)C(=O)NO)c1noc(-c2ccco2)n1 [Example 34, 2R-[3-(3,5-Bis-trifluoromethyl-phenyl)-propyl]-N1-[1S-(5-furan-2-yl-[1,2,4]oxadiazol-3-yl)-2,2-dimethyl-propyl]-3S,N4-dihydroxy-succinamide]
Metalloelastase (MMP12)
  IC50: > 10000 nM
Collagenase (MMP1)
  IC50: > 10000 nM
92 kDa gelatinase (MMP9)
  IC50: > 10000 nM

## CC(C)C[C@@H](C(=O)N[C@H](c1noc(-c2ccco2)n1)C(C)(C)C)[C@H](O)C(=O)O [Example 30, 3R-[1S-(5-Furan-2-yl-[1,2,4]oxadiazol-3-yl)-2,2-dimethyl-propylcarbamoyl]-2S-hydroxy-5-methyl-hexanoic Acid]
Metalloelastase (MMP12)
  IC50: 1000 to 10000 nM
Collagenase (MMP1)
  IC50: > 10000 nM
92 kDa gelatinase (MMP9)
  IC50: > 10000 nM

## Cc1ccc(-c2nc([C@@H](NC(=O)[C@H](CC(C)C)[C@H](O)C(=O)NO)C(C)(C)C)no2)cc1 [Example 15, 2S-Hydroxy-3R-[1S-(5-p-tolyl-[1,2,4]oxadiazol-3-yl)-2,2-dimethyl-propylcarbamoyl]-5-methyl Hexanohydroxamic Acid]
Metalloelastase (MMP12)
  IC50: < 100 nM
Collagenase (MMP1)
  IC50: 100 to 1000 nM
92 kDa gelatinase (MMP9)
  IC50: 100 to 1000 nM

## CCc1nc([C@@H](NC(=O)[C@H](CC(C)C)[C@H](O)C(=O)NO)C(C)(C)C)no1 [Example 8, 2S-Hydroxy-3R-[1S-(5-ethyl-[1,2,4]oxadiazol-3-yl)-2,2-dimethyl-propylcarbamoyl]-5-methyl Hexanohydroxamic Acid]
Metalloelastase (MMP12)
  IC50: < 100 nM
Collagenase (MMP1)
  IC50: 100 to 1000 nM
92 kDa gelatinase (MMP9)
  IC50: 100 to 1000 nM

## CC(C)c1noc([C@@H](NC(=O)[C@H](CC2CCCC2)[C@H](O)C(=O)NO)C(C)(C)C)n1 [Example 32, 2R-Cyclopentylmethyl-3S,N4-dihydroxy-N1-[1S-(3-isopropyl-[1,2,4]oxadiazol-5-yl)-2,2-dimethyl-propyl]-succinamide]
Metalloelastase (MMP12)
  IC50: < 100 nM
Collagenase (MMP1)
  IC50: < 100 nM
92 kDa gelatinase (MMP9)
  IC50: < 100 nM

## CC(C)(C)[C@H](NC(=O)[C@H](CCCc1cc(C(F)(F)F)cc(C(F)(F)F)c1)[C@H](O)C(=O)NO)c1noc(-c2cccs2)n1 [Example 33, 2R-[3-(3,5-Bis-trifluoromethyl-phenyl)-propyl]-N1-[2,2-dimethyl-1S-(5-thiophen-2-yl-[1,2,4]oxadiazol-3-yl)-propyl]-3S, N4-dihydroxy-succinamide]
Metalloelastase (MMP12)
  IC50: 100 to 1000 nM
Collagenase (MMP1)
  IC50: > 10000 nM
92 kDa gelatinase (MMP9)
  IC50: > 10000 nM

## Cc1nc([C@@H](NC(=O)[C@H](CC(C)C)[C@H](O)C(=O)NO)C(C)(C)C)no1 [Example 17, 2S-Hydroxy-3R-[1S-(5-methyl-[1,2,4]oxadiazol-3-yl)-2,2-dimethyl-propylcarbamoyl]-5-methyl Hexanohydroxamic Acid]
Metalloelastase (MMP12)
  IC50: < 100 nM
Collagenase (MMP1)
  IC50: 100 to 1000 nM
92 kDa gelatinase (MMP9)
  IC50: 1000 to 10000 nM

## CC(C)C[C@@H](C(=O)N[C@H](c1noc(-c2cccs2)n1)C(C)(C)C)[C@H](O)C(=O)O [Example 29, 3R-[2,2-Dimethyl-1S-(5-thiophen-2-yl-[1,2,4]oxadiazol-3-yl)-propylcarbamoyl]-2S-hydroxy-5-methyl-hexanoic Acid]
Metalloelastase (MMP12)
  IC50: 100 to 1000 nM
Collagenase (MMP1)
  IC50: 1000 to 10000 nM
92 kDa gelatinase (MMP9)
  IC50: 1000 to 10000 nM

## C=CC[C@H](C(=O)NO)[C@@H](CC(C)C)C(=O)N[C@@H](Cc1ccccc1)c1nc(C(C)C)no1 [Example 21, 2S-Allyl-5-methyl-3R-[2-phenyl-1S-(3-isopropyl-[1,2,4]oxadiazol-5-yl)-ethylcarbamoyl]-hexanohydroxamic Acid]
Metalloelastase (MMP12)
  IC50: < 100 nM
Collagenase (MMP1)
  IC50: 100 to 1000 nM
92 kDa gelatinase (MMP9)
  IC50: < 100 nM

## CC(C)C[C@@H](C(=O)N[C@H](c1noc(Cc2cccs2)n1)C(C)(C)C)[C@H](O)C(=O)NO [Example 7, 2S-Hydroxy-3R-[1S-(5-thiopen-2-ylmethyl-[1,2,4]oxadiazol-3-yl)-2,2-dimethyl-propylcarbamoyl]-5-methyl Hexanohydroxamic Acid]
Metalloelastase (MMP12)
  IC50: 100 to 1000 nM
Collagenase (MMP1)
  IC50: 1000 to 10000 nM
92 kDa gelatinase (MMP9)
  IC50: 1000 to 10000 nM

## CCOc1ccc(CCC[C@@H](C(=O)N[C@H](c2noc(-c3cccs3)n2)C(C)(C)C)[C@H](O)C(=O)NO)cc1 [Example 3]
Metalloelastase (MMP12)
  IC50: < 100 nM
Collagenase (MMP1)
  IC50: > 10000 nM
92 kDa gelatinase (MMP9)
  IC50: < 100 nM

## CCCCCCCCCCCCCCCC[C@H](CC(=O)O)C(=O)N[C@H](c1nc(-c2ccccc2)no1)C(C)(C)C [Example 27, 3R-[2,2-Dimethyl-1S-(3-phenyl-[1,2,4]oxadiazol-5-yl)-propylcarbamoyl]-nonadecanoic Acid]
Metalloelastase (MMP12)
  IC50: > 10000 nM
92 kDa gelatinase (MMP9)
  IC50: > 10000 nM

## C=CC[C@H](C(=O)NO)[C@@H](CC(C)C)C(=O)N[C@@H](Cc1ccccc1)c1nc(-c2ccccc2)no1 [Example 20, 2S-Allyl-5-methyl-3R-[2-phenyl-1S-(3-phenyl-[1,2,4]oxadiazol-5-yl)-ethylcarbamoyl]-hexanohydroxamic Acid]
Metalloelastase (MMP12)
  IC50: < 100 nM
Collagenase (MMP1)
  IC50: 100 to 1000 nM
92 kDa gelatinase (MMP9)
  IC50: < 100 nM

## CC(C)C[C@@H](C(=O)N[C@H](c1noc(-c2ccccc2)n1)C(C)(C)C)[C@H](O)C(=O)NO [Example 1, 3R-[2,2-Dimethyl-1 S-(5-phenyl-[1,2,4]oxadiazol-3-yl)-propylcarbamoyl]-2S-hydroxy-5-methyl-Hexanohydroxamic Acid]
Metalloelastase (MMP12)
  IC50: < 100 nM
Collagenase (MMP1)
  IC50: 100 to 1000 nM
92 kDa gelatinase (MMP9)
  IC50: 100 to 1000 nM

## CCCCCCCCCCCCCC[C@H](CC(=O)O)C(=O)N[C@H](c1nc(-c2ccccc2)no1)C(C)(C)C [Example 26, 3R-[2,2-Dimethyl-1S-(3-phenyl-[1,2,4]oxadiazol-5-yl)-propylcarbamoyl]-heptadecanoic Acid]
Metalloelastase (MMP12)
  IC50: > 10000 nM
92 kDa gelatinase (MMP9)
  IC50: > 10000 nM

## C=CC[C@H](C(=O)NO)[C@@H](CC(C)C)C(=O)N[C@@H](Cc1ccccc1)c1nc(C)no1 [Example 22, 2S-Allyl-5-methyl-3R-[2-phenyl-1S-(3-methyl-[1,2,4]oxadiazol-5-yl)-ethylcarbamoyl]-hexanohydroxamic Acid]
Collagenase (MMP1)
  IC50: < 100 nM
